From ChEMBL document CHEMBL2203104, “Recent advances in antitubercular natural products” (Eur J Med Chem, 2012)
pIC50: −log10 of the molar value. Values after ≈ are worked out from the molar mass of the structure shown.

How the values were obtained:
Vero = assay: Cytotoxicity against african green monkey Vero cells; assay type: cell-based; details: Chlorocebus sabaeus
[1] = system: Mycobacterium tuberculosis; assay: Antimycobacterial activity against Mycobacterium tuberculosis H37Ra; assay type: functional
[2] = Selectivity index, ratio of IC50 for african green monkey Vero cells to MIC for Mycobacterium tuberculosis H37Ra; assay type: functional
[3] = system: Mycobacterium tuberculosis; assay: Antimycobacterial activity against Mycobacterium tuberculosis H37Rv; assay type: functional; details: Mycobacterium tuberculosis, H37Rv; read-out: MIC
[4] = system: Mycobacterium tuberculosis; assay: Antimycobacterial activity against Mycobacterium tuberculosis Erdman by microplate alamar blue assay; assay type: functional
[5] = system: Mycobacterium tuberculosis; assay: Antimycobacterial activity against Mycobacterium tuberculosis H242; assay type: functional
[6] = system: Mycobacterium tuberculosis; assay: Antimycobacterial activity against Mycobacterium tuberculosis at 128 ug/mL; assay type: functional; details: read-out: GI
[7] = system: Mycobacterium tuberculosis; assay: Antimycobacterial activity against Mycobacterium tuberculosis H37Rv by liquid microdilution method; assay type: functional
[8] = Inhibition of Mycobacterium tuberculosis RNA polymerase
[9] = system: Mycobacterium tuberculosis; assay: Growth inhibition of Mycobacterium tuberculosis H37Rv at 6.25 ug/ml; assay type: functional; details: read-out: GI
[10] = system: Mycobacterium tuberculosis; assay: Antimycobacterial activity against Mycobacterium tuberculosis H37Rv under aerobic condition; assay type: functional
[11] = system: Mycobacterium tuberculosis; assay: Antimycobacterial activity against Mycobacterium tuberculosis H37Rv under anaerobic condition; assay type: functional
[12] = Selectivity index, ratio of IC50 for african green monkey Vero cells to MIC for Mycobacterium tuberculosis H37Rv; assay type: functional
[13] = system: Mycobacterium tuberculosis; assay: Antimycobacterial activity against Mycobacterium tuberculosis isolate no. 246; assay type: functional
[14] = molecular target: T1, 3-oxoacyl-[acyl-carrier-protein] synthase 1 (Mycobacterium tuberculosis, UniProt P9WQD9); assay: Inhibition of Mycobacterium tuberculosis H37Rv Fab1
T1 sequence (P9WQD9 whole entry): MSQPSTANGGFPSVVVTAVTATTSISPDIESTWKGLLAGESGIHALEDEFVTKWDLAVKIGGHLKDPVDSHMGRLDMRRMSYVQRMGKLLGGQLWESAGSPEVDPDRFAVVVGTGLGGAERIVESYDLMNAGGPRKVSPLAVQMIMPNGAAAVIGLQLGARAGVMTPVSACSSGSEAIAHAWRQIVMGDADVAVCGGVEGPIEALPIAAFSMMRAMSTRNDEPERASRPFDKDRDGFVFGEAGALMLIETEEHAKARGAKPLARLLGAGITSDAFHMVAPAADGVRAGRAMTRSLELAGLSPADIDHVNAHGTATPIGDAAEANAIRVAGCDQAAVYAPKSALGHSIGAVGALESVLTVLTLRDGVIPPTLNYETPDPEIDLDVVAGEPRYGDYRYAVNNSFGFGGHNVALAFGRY

[15] = system: Mycobacterium tuberculosis; assay: Antimycobacterial activity against Mycobacterium tuberculosis H37Rv isolate WC 64/02; assay type: functional
[16] = Selectivity index, ratio of CC50 for lymphocytes to MIC for Mycobacterium tuberculosis H37Rv isolate WC 64/02; assay type: functional
[17] = system: Mycobacterium tuberculosis; assay: Antimycobacterial activity against Mycobacterium tuberculosis H37Rv isolate WC 51/02; assay type: functional
[18] = Selectivity index, ratio of CC50 for lymphocytes to MIC for Mycobacterium tuberculosis H37Rv isolate WC 51/02; assay type: functional

Question: With `COC1=CC(=O)c2c(cc(OC)c(C(C)OC(C)=O)c2O)C1=O` (configuration not stated) as the molecule, how does the IC50 (Vero) read?
Answer: Its IC50 is 0.33 µg/mL.

Question: And the MIC [1]?
Answer: Its MIC is 0.39 µg/mL.

Question: And the “Selectivity Index” value [2]?
Answer: The value was under 1.

Question: What does the source list for `C=CC(O)C#CC#CC(O)/C=C\CCCCCCCCOC(C)=O` (configuration not stated)?
Answer: MIC [3]: 25.3 µg/mL; MIC [4]: 1.4 µg/mL (≈ 4.21 µM)

Question: With `CCCCCCCC/C=C\CCCCCCCCCCCCCCCC[C@@H](O)C(=O)N[C@@H](CO[C@@H]1O[C@H](CO)[C@H](O)[C@H](O)[C@H]1O)[C@H](O)[C@H](O)CCC/C=C\CCCCCCCCC` as the molecule, how does the MIC [5] read?
Answer: The MIC was 40 µg/mL (≈ 44.5 µM).

Question: And the MIC [3]?
Answer: The MIC was 40 µg/mL.

Question: With `C=C(C)[C@H]1CC[C@@H]2C(=O)O[C@H]3[C@@H]2O[C@@]2(O[C@@H]1C(=O)[C@@]1(C)O[C@@H]21)[C@@H]3C(=C)C` [BIPINNAPTEROLIDE B] as the molecule, how does the inhibition of growth at 128 µg/mL [6] read?
Answer: Its inhibition of growth at 128 µg/mL is 66%.

Question: Which MIC [7] does the source give for `CC[C@H](C)[C@@H](NC(=O)[C@@H](CCC(=O)O)NC(=O)[C@H](Cc1cnc[nH]1)NC(=O)[C@H](CC(C)C)NC(=O)[C@H](N)Cc1ccccc1)C(=O)N[C@H]1CCCCNC1=O` [CALPINACTAM] here?
Answer: The MIC was 12.5 µg/mL (≈ 16.3 µM).

Question: For `C=C(C)[C@@H]1CCC2=C[C@@H](OC2=O)C2=C(C)C[C@](O)(C2=O)[C@H](C)[C@@H](O)C1=O` [CORALLOLIDE B], which inhibition of growth at 128 µg/mL [6] is on record?
Answer: The inhibition of growth at 128 µg/mL was 95%.

Question: With `C/C=C/C/C=C(\C)C(O)CC/C(C)=C/C=C(\C)C(=O)c1c(O)cc([C@H](C)CC/C=C/NC(=O)OC)oc1=O` (some centres not stated) [CORALLOPYRONIN A] as the molecule, how does the pIC50 [8] read?
Answer: The pIC50 was 5.40.

Question: Which inhibition of growth at 6.25 µg/mL [9] does the source give for `C[C@@H]1CC[C@@H]2[C@@H](C)C[C@@H](C(=O)/C=C\O)[C@]2(O)C1=O` [ELISABETHIN H] here?
Answer: Its inhibition of growth at 6.25 µg/mL is 51%.

Question: Which MIC [10] does the source give for `CCCC/C=C/C#CC#CCCCCCCCC(=O)O` [EXOCARPIC ACID] here?
Answer: Its MIC is 20 µg/mL (≈ 72.9 µM).

Question: What about the MIC [11] of the same molecule?
Answer: Its MIC is 87 µg/mL (≈ 317 µM).

Question: What about the MIC [1] of the same molecule?
Answer: The MIC was 20 µg/mL.

Question: With `C=C[C@@]1(C)[C@H](Cl)C[C@@H]2C(C)(C)c3cccc4[nH]c5c(c34)[C@@]2(O)[C@]1(C#N)[C@@]1(CO1)C5(C)C` [FISCHAMBIGUINE B] as the molecule, how does the “Selectivity Index” value [12] read?
Answer: The value was 64.

Question: And the pIC50 (Vero)?
Answer: Its pIC50 is 3.89.

Question: And the MIC [3]?
Answer: The MIC was 2 µM.

Question: For `CCCCCC(CC(=O)N1N=CCCC1C(=O)N[C@H]1COC(=O)[C@H]2CCCNN2C(=O)[C@H](C)NC(=O)[C@@H](CC(C)C)NC1=O)C(=O)O` (some centres not stated) [LYDIAMYCIN A], which MIC [13] is on record?
Answer: Its MIC is 25 µg/mL (≈ 37.7 µM).

Question: What about the MIC [3] of the same molecule?
Answer: Its MIC is 12.5 µg/mL.

Question: With `CCC/C(C)=C/C=C(\C)C(=O)c1c(O)cc([C@H](C)CC/C=C/NC(=O)OC)oc1=O` [MYXOPORIN A] as the molecule, how does the pIC50 [8] read?
Answer: Its pIC50 is 6.00.

Question: Which results are given for `C=C(CC[C@@H](C)[C@H]1CC[C@H]2[C@@H]3C(C=O)=C4C[C@@H](O)CC[C@]4(C)[C@H]3CC[C@]12C)C(C)C` [PARGUESTEROL A]?
Answer: Selectivity Index [12]: <7; IC50 (Vero): 52 µg/mL; MIC [3]: 7.8 µg/mL

Question: For `C=C(CC[C@@H](C)[C@H]1CC[C@H]2[C@@H]3C(C=O)[C@]4(O)C[C@@H](O)CC[C@]4(C)[C@H]3CC[C@]12C)C(C)C` (some centres not stated) [PARGUESTEROL B], which “Selectivity Index” value [12] is on record?
Answer: The value was under 7.

Question: And the IC50 (Vero)?
Answer: Its IC50 is 52 µg/mL.

Question: What about the MIC [3] of the same molecule?
Answer: Its MIC is 11.2 µg/mL.

Question: Which MIC [3] does the source give for `CCCCCCCc1cc(O)c(CCCCCC)c(=O)o1` [PSEUDOPYRONINES B] here?
Answer: The MIC was 0.78 µg/mL.

Question: And the pIC50 [14]?
Answer: The pIC50 was 5.42.

Question: Which MIC [15] does the source give for `Cc1cc(O)c2c(c1)C(=O)C=CC2=O` [RAMENTACEONE] here?
Answer: Its MIC is 0.5 µg/mL (≈ 2.66 µM).

Question: What about the “Selectivity Index” value [16] of the same molecule?
Answer: Its value is under 8.

Question: And the MIC [17]?
Answer: The MIC was 0.5 µg/mL (≈ 2.66 µM).

Question: And the “Selectivity Index” value [18]?
Answer: Its value is under 8.

Question: What does the source list for `Cc1cc(O)cc2c1C[C@@H]1C[C@@H](O)[C@]3(C)Oc4cc(O)cc(C)c4C[C@@H]3CC(C)(C)/C=C/C[C@@]1(C)C2` [RAMIFERIN]?
Answer: pIC50 (Vero): 5.01; MIC [1]: 12.7 µM; Selectivity Index [2]: 0.7

Question: With `C/C(=C\Cc1ccccc1)CC[C@@]1(O)C[C@H]2C[C@@H](C/C(C)=C/C/C=C/C/C(CC(=O)O)=C\C(=O)O2)O1` [RIPOSTATIN A] as the molecule, how does the pIC50 [8] read?
Answer: Its pIC50 is 6.10.
